Reference: the supplement of paper PMC10307832

Tests used:
Experiment in all cases: relative viability (nuclei count vs DMSO), 5 days (fraction); higher = more cells survive
XMD13-2 + Crizotinib = compound: C1CC1C(=O)NC2=NNC3=C2C=CC(=C3)C4=CC(=CC=C4)C(=O)NC5CC5 [XMD13-2] + C[C@@H](Oc1cc(-c2cnn(C3CCNCC3)c2)cnc1N)c1c(Cl)ccc(F)c1Cl [Crizotinib] (partner 1 µM)
How it was run: (§1)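 Each reported value is a median over duplicate plates. It expresses relative viability: treated-well nuclei count divided by vehicle-well nuclei count. Lung cancer cell lines in 1536-well plates were dosed by pin tool a day after seeding, alone with one drug or with a fixed anchor-drug dose plus five library-drug doses (not always all listed) in √10 steps, and nuclei were counted after 5 days.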

XMD13-2 + Phenformin = compound: C1CC1C(=O)NC2=NNC3=C2C=CC(=C3)C4=CC(=CC=C4)C(=O)NC5CC5 [XMD13-2] + N=C(N)NC(=N)NCCc1ccccc1 [Phenformin] (partner 250 µM)
How it was run: as §1

Dasatinib + Pictilisib = compound: Cc1nc(Nc2ncc(C(=O)Nc3c(C)cccc3Cl)s2)cc(N2CCN(CCO)CC2)n1 [Dasatinib] + CS(=O)(=O)N1CCN(Cc2cc3nc(-c4cccc5[nH]ncc45)nc(N4CCOCC4)c3s2)CC1 [Pictilisib] (partner 1 µM)
How it was run: as §1

Dasatinib + Linsitinib = compound: Cc1nc(Nc2ncc(C(=O)Nc3c(C)cccc3Cl)s2)cc(N2CCN(CCO)CC2)n1 [Dasatinib] + C[C@]1(O)C[C@@H](c2nc(-c3ccc4ccc(-c5ccccc5)nc4c3)c3c(N)nccn32)C1 [Linsitinib] (partner 1 µM)
How it was run: as §1

## UMC-11
XMD13-2 + Crizotinib; first compound 0.05 µM
  relative viability: 0.58
XMD13-2 + Crizotinib; first compound 0.1581 µM
  relative viability: 0.557
XMD13-2 + Crizotinib; first compound 0.5 µM
  relative viability: 0.647
XMD13-2 + Crizotinib; first compound 1.581 µM
  relative viability: 0.467
XMD13-2 + Crizotinib; first compound 5 µM
  relative viability: 0.329
XMD13-2 + Phenformin; first compound 0.05 µM
  relative viability: 0.362
XMD13-2 + Phenformin; first compound 0.1581 µM
  relative viability: 0.314
XMD13-2 + Phenformin; first compound 0.5 µM
  relative viability: 0.337
XMD13-2 + Phenformin; first compound 1.581 µM
  relative viability: 0.317
XMD13-2 + Phenformin; first compound 5 µM
  relative viability: 0.285
Dasatinib + Pictilisib; first compound 0.005 µM
  relative viability: 0.735
Dasatinib + Pictilisib; first compound 0.01581 µM
  relative viability: 0.64
Dasatinib + Pictilisib; first compound 0.05 µM
  relative viability: 0.49
Dasatinib + Pictilisib; first compound 0.1581 µM
  relative viability: 0.288
Dasatinib + Pictilisib; first compound 0.5 µM
  relative viability: 0.288
Dasatinib + Linsitinib; first compound 0.005 µM
  relative viability: 0.911
Dasatinib + Linsitinib; first compound 0.01581 µM
  relative viability: 0.827
Dasatinib + Linsitinib; first compound 0.05 µM
  relative viability: 0.543
Dasatinib + Linsitinib; first compound 0.1581 µM
  relative viability: 0.342
Dasatinib + Linsitinib; first compound 0.5 µM
  relative viability: 0.319
